The nature of series [1]: Solubility in aqueous and organic solvents. Type of series: physicochemical.
The next series concerns various cell lines. To be noted: cited from earlier work.
Details of series [2]: method as in PMID 3821476. To be noted: up to 9 days, UV-spectroscopy; cited from earlier work.
A short description of series [3]: Log P (1-octanol/water partition, gamma counting). Particulars: 1-octanol/H2O, mean ± SD, n = 3 (free 52Mn n = 2). Type of series: physicochemical. Here is the method: An aliquot (500 μL) of each layer was then added to an Eppendorf. An aliquot (20 μL) of the [^52Mn]Mn-porphyrin reaction mixture was then added to the two layers and vortexed for 5 min. After mixing, the suspension was […] briefly for 10 s to settle the layers, and 200 μL of each layer was extracted. The octanol and H2O layers were then gamma counted (Wallac CompuGamma) and the Log P was calculated as below: LogP=LogActivityCPMin octanol layer/ActivityCPMinwaterlayer

These results are taken from article PMC10236072, “Microwave-assisted synthesis of [^52Mn]Mn-porphyrins: Applications in cell and liposome radiolabelling” (Nuclear Medicine and Biology, 2022).

SMILES strings stand for the structures. Read-outs that look alike come from different tables or passages of the source.

For the compound `CNS(=O)(=O)c1ccc(F)c(-c2c3nc(c(-c4c(F)ccc(S(=O)(=O)NC)c4F)c4ccc([nH]4)c(-c4c(F)ccc(S(=O)(=O)NC)c4F)c4nc(c(-c5c(F)ccc(S(=O)(=O)NC)c5F)c5ccc2[nH]5)C=C4)C=C3)c1F` [porphyrin 2], the solubility result in series [1] is “favourable solubility in aqueous and organic solvents”; in series [1] (listed as Porphyrin 2), “favourable solubility in both aqueous and organic solvents”.

In the case of `[89Zr+4].[O-]c1cccc2cccnc12.[O-]c1cccc2cccnc12.[O-]c1cccc2cccnc12.[O-]c1cccc2cccnc12` [[^89Zr]Zr-oxine], the cellular retention result in the series with various cell lines (later timepoints (5–7 days)) was “at least 30%”; with various cell lines (various cell lines, after 24 h) it was over 65%.

As for `O=S(=O)([O-])c1ccc(-c2c3nc(c(-c4ccc(S(=O)(=O)[O-])cc4)c4ccc([n-]4)c(-c4ccc(S(=O)(=O)[O-])cc4)c4ccc([n-]4)c(-c4ccc(S(=O)(=O)[O-])cc4)c4nc2C=C4)C=C3)cc1.[Mn+3]` [Mn-(5)], the “stability in human plasma” value in series [2] is on record as “stable”.

Turning to `[Cl][52Mn][Cl]` [Buffered ^52Mn, [^52Mn]MnCl2], in series [3], the “Log P value” is reported as −2.4 ± 0.7.
